Data set [1] in a line: Cyclic voltammetry of Tb, HEDP and ZOL. Conditions: glassy carbon electrode, Ag/AgCl reference, carbonate buffer pH 9.
Data set [2] can be described thus: Radioelectrophoresis (net charge of complexes). Format: physicochemical. Conditions: 0.05 M phosphate buffer pH 7.4, 250 V, 1 h. The method, then:
Radioelectrophoresis was employed to determine the net charge of the ^161Tb-labeled diphosphonate complexes and to confirm successful radiolabeling. For each sample, 5 μL of the radiolabeled complex or a control solution of ^161TbCl3 was applied to the center of Whatman 3MM chromatography paper strips (2 × 25 cm), which had been pre-soaked in 0.05 M phosphate buffer (pH 7.4). The strips were placed in an electrophoresis chamber filled with the same phosphate buffer, and electrophoresis was carried out at 250 V for 1 h using a Gelman Instrument electrophoresis system (Gelman Instrument Co., Ann Arbor, MI, USA). After radioelectrophoresis, each strip was dried and scanned using a TLC scanner. This method allowed the determination of the migration pattern of the radiolabeled species compared to free ^161Tb^3+, providing information about the charge and integrity of the formed complexes.

The nature of data set [3]: Biodistribution in healthy Wistar rats. Type of data set: in vivo. Conditions: i.v. The method, then: All animal experiments were conducted using healthy Wistar rats weighing 100–120 g. The rats were obtained from the Military Medical Academy (Belgrade, Serbia). All procedures involving animals were approved by the Ethical Committee of the Vinča Institute of Nuclear Sciences (permission No. 002225501 2025, issued on 20 May 2025) and were performed by the Directive 2010/63/EU of the European Parliament and of the Council of 22 September 2010 [50] on the protection of animals used for scientific purposes, as well as national animal welfare laws.
A total of 0.74 MBq of each ^161Tb-labeled compound (^161Tb-HEDP and ^161Tb-ZOL) and free ^161TbCl3 (at pH 7.5 and pH 4.5) was prepared in a final injection volume of 0.1 mL. Physiological saline was added to adjust the concentration to 10 µg of radiolabeled complex per 0.1 mL. Each formulation was administered intravenously via the lateral tail vein.
Animals (n = 3 per time point) were sacrificed at predetermined intervals: 2 h, 24 h, and 7 d post-injection, depending on the study group. Euthanasia was performed by intraperitoneal injection of a ketamine/xylazine overdose. Immediately after sacrifice, major organs and tissues (heart, lungs, liver, spleen, kidneys, stomach, intestines, muscle, and femur) were collected, weighed, and assessed for radioactivity using a gamma counter. The biodistribution of radiolabeled compounds was expressed as the percentage of the injected dose per gram of tissue (%ID/g), calculated by comparing the sample activity to that of the standard representing 100% of the injected dose. All data are presented as mean ± standard deviation (SD).

Setting [4] is: 2 h post-injection (initial), injected at pH 4.5.
Where [5] appears, read: 2 h post-injection, injected at pH 4.5.
Where [6] appears, read: 2 h post-injection, injected at pH 7.5.
Where [7] appears, read: 7 d post-injection, injected at pH 7.5.

Molecules are shown by their SMILES.

`CC(O)(P(=O)(O)O)P(=O)(O)O` [HEDP, 1-Hydroxyethylidene-1,1-diphosphonic acid]: in data set [1], the “Second Oxidation Pot.” value is 1.45 V and the “Second Reduction Pot.” value is −0.54 V.
Take `O.O.O.O.O.O.[Cl-].[Cl-].[Cl-].[Tb+3]` [Tb, terbium(III) chloride hexahydrate]: in data set [1], the “Second Oxidation Pot.” value was 1.39 V and the “Second Reduction Pot.” value is given as −0.56 V.
For the molecule `O=P(O)(O)C(O)(Cn1ccnc1)P(=O)(O)O` [ZOL, 1-hydroxy-2-(1H-imidazol-1-yl)ethane-1,1-diyldiphosphonic acid], in data set [1], the “First Oxidation Pot.” value was found to be 0.93 V, the “First Reduction Pot.” value is reported as 0.41 V, the “Second Oxidation Pot.” value stood at 1.27 V and the “Second Reduction Pot.” value is −0.54 V.
As for `[161Tb+3].[Cl-].[Cl-].[Cl-]` [^161TbCl3], the “Migration / net charge in radioelectrophoresis” value in data set [2] is listed as “remained at the point of application”. Also, in data set [3] (setting [4]), the Liver stood at 1.88 ± 0.31 %ID/g and the Spleen uptake was 0.37 ± 0.12 %ID/g. Further, in data set [3] (setting [5]), the Blood was 0.02 ± 0.01 %ID/g, the Bone uptake is 7.31 ± 0.32 %ID/g, the Bone-to-kidney ratio was 3.97 and the Bone-to-liver ratio is on record as 3.89. Further, in data set [3] (setting [5]), the Muscle turned out to be 0.08 ± 0.05 %ID/g and the Other tissues entry is reported as “Minimal uptake”. In data set [3] (2 h post-injection, injected at pH 4.5, listed as 161TbCl3 (pH 4.5)), this molecule had a Kidney of 1.84 ± 0.07 %ID/g. Besides, in data set [3] (setting [6]), the Bone uptake worked out at 6.53 ± 0.22 %ID/g, the Kidney uptake was found to be 1.03 ± 0.06 %ID/g, the Liver uptake is on record as 6.99 ± 0.21 %ID/g and the Spleen uptake stood at 4.88 ± 0.15 %ID/g. The same molecule showed a Bone uptake in data set [3] (24 h post-injection, injected at pH 7.5) of 6.61 ± 0.14 %ID/g. In data set [3] (7 d post-injection, injected at pH 4.5), the Bone uptake was determined as 7.18 ± 0.12 %ID/g. Besides, in data set [3] (setting [7]), the Bone uptake was 6.68 ± 0.29 %ID/g, the Kidney uptake was found to be 0.60 ± 0.02 %ID/g, the Liver uptake is recorded as 2.33 ± 0.02 %ID/g and the Spleen uptake amounted to 0.79 ± 0.02 %ID/g.
